These results are taken from patent US20120053180A1, “CYCLOHEXANE ANALOGUES AS GPR119 AGONISTS” (CHEMIZON, A DIVISION OF OPTOMAGIC CO., LTD., priority 2010, published 2012).

Each structure is given as a SMILES string.

One experiment deals with T1, GPR119 (Homo sapiens, UniProt Q8TDV5).
T1 sequence (Q8TDV5 1-335): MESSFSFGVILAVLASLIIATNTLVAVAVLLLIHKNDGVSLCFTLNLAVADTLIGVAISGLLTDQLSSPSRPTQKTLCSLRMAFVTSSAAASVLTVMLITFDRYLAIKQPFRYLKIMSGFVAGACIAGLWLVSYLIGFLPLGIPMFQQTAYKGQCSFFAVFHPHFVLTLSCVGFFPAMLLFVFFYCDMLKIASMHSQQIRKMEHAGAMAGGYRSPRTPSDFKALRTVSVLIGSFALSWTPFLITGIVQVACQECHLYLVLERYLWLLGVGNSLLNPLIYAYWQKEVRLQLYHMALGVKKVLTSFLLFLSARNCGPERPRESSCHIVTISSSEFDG
Nature of the experiment: cAMP assays of selected examples (stimulation of cAMP). In kind it is cell-based. The note with it: '>200 nM'. From the text: Camp Assays of Selected Examples
In general terms: cAMP levels reflect the balance of adenylyl cyclase and phosphodiesterase activity.
`CS(=O)(=O)c1ccc(OCc2cn(C3CCC(Oc4ncccn4)CC3)nn2)cc1` (centres unmarked): the EC50 (usually the midpoint of the concentration-response curve) is > 200 nM.
Consider `Cc1cnc(OC2CCC(n3cc(COc4ccc(S(C)(=O)=O)cc4)nn3)CC2)nc1` (centres unmarked), for which the EC50 was > 200 nM.
With `CCc1cnc(OC2CCC(n3cc(COc4ccc(S(C)(=O)=O)cc4)nn3)CC2)nc1` (centres unmarked), the EC50 is > 200 nM.
As for `CCc1cnc(OC2CCC(c3nc(CNc4ccc(S(C)(=O)=O)cc4)cs3)CC2)nc1` (centres unmarked), the EC50 is > 200 nM.

Still in this experiment, the particulars now being: <200 nM.
With `CCc1cnc(OC2CCC(c3nc(COc4ccc(S(C)(=O)=O)cc4)cs3)CC2)nc1` (centres unmarked), the EC50 is < 200 nM.
The same measure, in the same setting: under `CCc1cnc(OC2CCC(c3nc(COc4ccc(S(C)(=O)=O)cc4F)cs3)CC2)nc1` (centres unmarked) stands < 200 nM.
On the same count and under the same terms, under `CCc1cnc(OC2CCC(c3nc(COc4ccc(-n5cnnn5)cc4)cs3)CC2)nc1` (centres unmarked) stands < 200 nM.
Regarding `CCc1cnc(OC2CCC(Oc3c(F)cc(-c4ccc(S(C)(=O)=O)cc4)cc3F)CC2)nc1` (centres unmarked), the EC50 is < 200 nM.
